Several values for one entry are separate records, joined by “and”; a condition that tells them apart may be missing. Equal values may be shown once. Read-outs that look alike come from different tables or passages of the source.
Columns and labels:
[1] = Solubility of PPTN in various aqueous and organic solvents; type: physicochemical; conditions: thermodynamic from solid, PPTN HCl salt, room temperature, read-out: Solubility Estimate
Protocol: The solubility of PPTN in various aqueous and organic solvents was tested. Test media were prepared, and 5 mg/mL solid PPTN (HCl salt) was added at room temperature. If all PPTN dissolved under these conditions, additional PPTN was added to a total of 10 mg/mL. After 24 hours, undissolved material was removed, and the concentration of PPTN in the supernatant was analyzed by HPLC.

[2] = Solubility of PPTN at pH ranges suitable for intravenous injection; type: physicochemical
Protocol: The solubility of PPTN at pH ranges suitable for intravenous injection was analyzed. PPTN (HCl salt) was dissolved in DMSO to make a stock solution, and the stock solution was diluted into various aqueous solutions. […] The solutions were then adjusted to achieve a pH ≥5.0, and the solutions were observed again.

[3] = Urine PPTN concentration after single bolus intravenous injection; type: in vivo; conditions: male rats; single bolus intravenous injection 0.85, 2.9 or 8.5 mg/kg
Protocol: The pharmacokinetics of PPTN (KB-1801) in male rats receiving single bolus intravenous injections of SBECD-containing solutions were analyzed. Three cohorts of four rats each were given a single dose of PPTN (KB-1801) at 0.85 mg/kg, 2.9 mg/kg, or 8.5 mg/kg in 1 mL dosing volume.

[4] = Plasma concentrations during 24-hour continuous intravenous infusion; type: in vivo, Sprague-Dawley rats; conditions: for Female/Male C24h Ratio: 24-hour intravenous infusion; for concentration at 1 h / concentration at 2 h / concentration at 4 h / concentration at 6 h / concentration at 8 h / concentration at 24 h: Sprague-Dawley, rat, plasma, iv
Protocol: (§1) The safety and pharmacokinetics of PPTN (KB-1801) in rats receiving continuous intravenous injections of SBECD-containing solutions were analyzed. Three cohorts of six male and six female rats each were given continuous intravenous infusion of PPTN (KB-1801) at 10 mg/kg/day, 30 mg/kg/day or 100 mg/kg/day in a dosing solution containing PPTN at 0.25 mg/mL, 0.75 mg/mL or 2.5 mg/mL and SBECD at about 3.8%. Dosing volume was 40 mIkg/day. [table]

[5] = Urine concentrations, 72-hour continuous intravenous infusion; type: in vivo, Sprague-Dawley rats; conditions: individual animals; for Total amount in urine: all intervals
Protocol: as §1, with “mIkg/day.” for “mIkg/day. [table]”

rats = test: Safety of PPTN/SBECD formulations during continuous intravenous infusion; type: in vivo; conditions: male Sprague-Dawley rat; 72-hour intravenous infusion at 100 mg/kg
Protocol: as §1, with “mIkg/day.” for “mIkg/day. [table]”

[6] = female, 10 mg/kg, female Sprague-Dawley rats, 24-hour intravenous infusion at 10 mg/kg, read-out: Plasma concentration, Mean
[7] = female, 10 mg/kg, female Sprague-Dawley rats, 24-hour intravenous infusion at 10 mg/kg, read-out: Plasma concentration, individual animal
[8] = female, 30 mg/kg, female Sprague-Dawley rats, 24-hour intravenous infusion at 30 mg/kg, read-out: Plasma concentration, Mean
[9] = female, 30 mg/kg, female Sprague-Dawley rats, 24-hour intravenous infusion at 30 mg/kg, read-out: Plasma concentration, individual animal
[10] = female, 100 mg/kg, female Sprague-Dawley rats, 24-hour intravenous infusion at 100 mg/kg, read-out: Plasma concentration, Mean
[11] = female, 100 mg/kg, female Sprague-Dawley rats, 24-hour intravenous infusion at 100 mg/kg, read-out: Plasma concentration, individual animal
[12] = male, 10 mg/kg, male Sprague-Dawley rats, 24-hour intravenous infusion at 10 mg/kg, read-out: Plasma concentration, Mean
[13] = male, 10 mg/kg, male Sprague-Dawley rats, 24-hour intravenous infusion at 10 mg/kg, read-out: Plasma concentration, individual animal
[14] = male, 30 mg/kg, male Sprague-Dawley rats, 24-hour intravenous infusion at 30 mg/kg, read-out: Plasma concentration, Mean
[15] = male, 30 mg/kg, male Sprague-Dawley rats, 24-hour intravenous infusion at 30 mg/kg, read-out: Plasma concentration, individual animal
[16] = male, 100 mg/kg, male Sprague-Dawley rats, 24-hour intravenous infusion at 100 mg/kg, read-out: Plasma concentration, Mean
[17] = male, 100 mg/kg, male Sprague-Dawley rats, 24-hour intravenous infusion at 100 mg/kg, read-out: Plasma concentration, individual animal
[18] = 72-hour IV infusion 10 mg/kg/day, male rats, interval 0-4 h
[19] = 72-hour IV infusion 10 mg/kg/day, male rats, interval 4-9 h
[20] = 72-hour IV infusion 10 mg/kg/day, male rats, interval 20-24 h
[21] = 72-hour IV infusion 10 mg/kg/day, male rats, interval 44-48 h
[22] = 72-hour IV infusion 10 mg/kg/day, male rats, interval 68-72 h
[23] = 72-hour IV infusion 10 mg/kg/day, male rats, interval 92-96 h

O=C(O)c1cc(-c2ccc(C3CCNCC3)cc2)c2ccc(-c3ccc(C(F)(F)F)cc3)cc2c1 [KB-1801, 4-[4-(piperidin-4-yl)phenyl]-7-[4-(trifluoromethyl)phenyl]-2-naphthoic acid]
solubility at 24 h ([1]; organic solvent or mixture, DMAc, pH 1-2): > 100 mg/mL
solubility at 24 h ([1]; organic solvent or mixture, NMP, pH 1-2): > 100 mg/mL
solubility at 24 h ([1]; organic solvent or mixture, PEG 400, pH ~2): ~25 mg/mL
solubility at 24 h ([1]; organic solvent or mixture, ethanol, pH ~2): 25 to 30 mg/mL
solubility at 24 h ([1]; organic solvent or mixture, propylene glycol, pH ~2): 40 to 50 mg/mL
solubility at 24 h ([1]; water with 1% DMAc, water w/ 1% DMAc, pH 2-3, 24 hours): 0.1 to 0.5 mg/mL
Solution appearance at 24 hours ([2]; 0.015 mg/mL (~29 μM), 1.5 mg DMSO stock solution diluted 100x in water, pH 4-5): Clear
Remarks when pH adjusted to 5-5.5 ([2]; 1.0 mg/mL, DMAc/Water (10/90, v/v), initial pH ~2): Became cloudy
Solution appearance at 24 hours ([2]; 5.0 mg/mL, 1.5 mg DMSO stock solution diluted 100x in PBS (20 mM), pH 5-6): Hazy
Remarks when pH adjusted to 5-5.5, after sonication ([2]; 5.0 mg/mL, DMAc/Water (10/90, v/v) with ~0.1% Tween 80, after sonication): became clear
Remarks when pH adjusted to 5-5.5 ([2]; 5.0 mg/mL, DMAc/Water (10/90, v/v) with ~0.1% Tween 80, initial pH 1-2): Became slightly cloudy;
Remarks when pH adjusted to 5-5.5 ([2]; 5.0 mg/mL, DMAc/Water (10/90, v/v), initial pH 1-2): Became very cloudy
Remarks when pH adjusted to 5-5.5 ([2]; 5.0 mg/mL, NMP/Water (10/90, v/v), initial pH 1-2): Became very cloudy
Remarks when pH adjusted to 5-5.5 ([2]; 5.0 mg/mL, Propylene Glycol/Water (10/90, v/v), initial pH 1-2): Became very cloudy
Urine concentration compared with plasma [3]: in excess of plasma concentrations
Female/Male C24h Ratio ([4]; Group 6, 10 mg/kg): 1.36
Female/Male C24h Ratio ([4]; Group 7, 30 mg/kg): 0.88
Female/Male C24h Ratio ([4]; Group 8, 100 mg/kg): 0.93
concentration at 1 h [4, 6]: 216 ng/mL
concentration at 2 h [4, 6]: 281 ng/mL
concentration at 2 h [4, 7]: 383 ng/mL
concentration at 4 h [4, 6]: 426 ng/mL
concentration at 4 h [4, 7]: 445 ng/mL
concentration at 6 h [4, 6]: 569 ng/mL
concentration at 6 h [4, 7]: 726 ng/mL
concentration at 8 h [4, 6]: 526 ng/mL
concentration at 8 h [4, 7]: 678 ng/mL
concentration at 24 h [4, 6]: 954 ng/mL
concentration at 24 h [4, 7]: 753 ng/mL
concentration at 1 h [4, 8]: 641 ng/mL
concentration at 1 h [4, 9]: 603 ng/mL
concentration at 2 h [4, 8]: 1430 ng/mL
concentration at 2 h [4, 9]: 1950 ng/mL
concentration at 4 h [4, 8]: 1530 ng/mL
concentration at 4 h [4, 9]: 1250 ng/mL
concentration at 6 h [4, 8]: 1640 ng/mL
concentration at 6 h [4, 9]: 1390 ng/mL
concentration at 8 h [4, 8]: 1730 ng/mL
concentration at 8 h [4, 9]: 1740 ng/mL
concentration at 24 h [4, 8]: 2500 ng/mL
concentration at 1 h [4, 10]: 2040 ng/mL
concentration at 1 h [4, 11]: 2630 ng/mL
concentration at 2 h [4, 10]: 2310 ng/mL
concentration at 4 h [4, 10]: 5210 ng/mL
concentration at 4 h [4, 11]: 4540 ng/mL
concentration at 6 h [4, 10]: 4300 ng/mL
concentration at 6 h [4, 11]: 3550 ng/mL
concentration at 8 h [4, 10]: 5660 ng/mL
concentration at 8 h [4, 11]: 6390 ng/mL
concentration at 24 h [4, 10]: 8150 ng/mL
concentration at 24 h [4, 11]: 5590 ng/mL
concentration at 1 h [4, 12]: 216 ng/mL
concentration at 1 h [4, 13]: 216 ng/mL
concentration at 2 h [4, 12]: 276 ng/mL
concentration at 2 h [4, 13]: 327 ng/mL
concentration at 4 h [4, 12]: 378 ng/mL
concentration at 6 h [4, 12]: 417 ng/mL
concentration at 6 h [4, 13]: 508 ng/mL
concentration at 8 h [4, 12]: 416 ng/mL
concentration at 8 h [4, 13]: 430 ng/mL
concentration at 24 h [4, 12]: 703 ng/mL
concentration at 1 h [4, 14]: 1020 ng/mL
concentration at 2 h [4, 14]: 1100 ng/mL
concentration at 4 h [4, 14]: 1320 ng/mL
concentration at 4 h [4, 15]: 1460 ng/mL
concentration at 6 h [4, 14]: 1470 ng/mL
concentration at 6 h [4, 15]: 1170 ng/mL
concentration at 8 h [4, 14]: 1500 ng/mL
concentration at 8 h [4, 15]: 1450 ng/mL
concentration at 24 h [4, 14]: 2830 ng/mL
concentration at 24 h [4, 15]: 2880 ng/mL
concentration at 1 h [4, 16]: 2120 ng/mL
concentration at 1 h [4, 17]: 1530 ng/mL
concentration at 2 h [4, 16]: 2760 ng/mL
concentration at 4 h [4, 16]: 3940 ng/mL
concentration at 4 h [4, 17]: 3560 ng/mL
concentration at 6 h [4, 16]: 6660 ng/mL
concentration at 8 h [4, 16]: 5770 ng/mL
concentration at 8 h [4, 17]: 6520 ng/mL
concentration at 24 h [4, 16]: 8740 ng/mL
concentration at 24 h [4, 17]: 10700 ng/mL
Total amount in urine ([5]; 72-hour IV infusion 10 mg/kg/day, female rats): 27.3 µg and 16.4 µg and 10.5 µg and 18.5 µg and 20.9 µg and 29.4 µg
Total amount in urine ([5]; 72-hour IV infusion 10 mg/kg/day, male rats): 54.2 µg and 46.1 µg and 62.5 µg and 83.7 µg and 74.4 µg and 60.9 µg
Amount in urine [5, 18]: 6.09 µg and 4.08 µg
Urine Conc. [5, 18]: 6.09 µg/mL and 8.16 µg/mL and 3.50 µg/mL and 7.91 µg/mL
Amount in urine [5, 19]: 11.5 µg and 5.46 µg and 8.50 µg and 6.95 µg
Urine Conc. [5, 19]: 7.64 µg/mL and 5.46 µg/mL and 17.0 µg/mL and 6.95 µg/mL and 15.8 µg/mL
Amount in urine [5, 20]: 20.7 µg and 10.0 µg and 7.20 µg and 30.9 µg
Urine Conc. [5, 20]: 20.7 µg/mL and 20.1 µg/mL and 24.0 µg/mL and 10.3 µg/mL and 19.4 µg/mL
Amount in urine [5, 21]: 2.48 µg and 14.1 µg and 22.9 µg
Urine Conc. [5, 21]: 24.8 µg/mL and 14.1 µg/mL and 45.9 µg/mL and 13.7 µg/mL
Amount in urine [5, 22]: 19.3 µg and 23.2 µg and 28.5 µg and 22.7 µg
Urine Conc. [5, 22]: 19.3 µg/mL and 23.2 µg/mL and 28.5 µg/mL and 22.7 µg/mL and 20.9 µg/mL
Amount in urine [5, 23]: 0.07 µg and 0.15 µg and 1.23 µg and 0.08 µg and 0.18 µg
Urine Conc. [5, 23]: 0.13 µg/mL and 0.10 µg/mL and 0.62 µg/mL and 0.20 µg/mL and 0.09 µg/mL and 0.07 µg/mL
Total amount in urine ([5]; 72-hour IV infusion 30 mg/kg/day, female rats): 75.7 μg and 78.9 μg (2×) and 66.9 μg and 80.5 μg and 131.7 μg
Total amount in urine ([5]; 72-hour IV infusion 30 mg/kg/day, male rats): 188.0 µg and 165.1 µg and 250.3 µg and 108.4 µg and 87.4 µg and 332.4 µg
Total amount in urine ([5]; 72-hour IV infusion 100 mg/kg/day, female rats): 251.8 µg and 191.6 µg and 78.7 µg and 198.3 µg and 151.4 µg and 353.9 µg
Total amount in urine ([5]; 72-hour IV infusion 100 mg/kg/day, male rats): 337.1 µg and 155.1 µg and 785.2 µg and 453.6 µg and 537.2 µg and 438.9 µg
Mortality, animal 16003 (rats): NS: No Sample. Animal 16003 died shortly after the 24h timepoint according to CRL.
